In patent publication US20220202852A1, “METHODS AND COMPOSITIONS OF AQUEOUS HYPOBROMOUS ACID FOR THE TREATMENT AND PREVENTION OF INFLAMMATORY CONDITIONS” (Briotech, Inc., priority 2020, published 2022):

What was measured:
[1] = test system: spores of Bacillus subtilis; experiment: Inactivation of resistant spores by HOBr/HOCl solutions; type: cell-based; conditions: 20 seconds contact
Protocol: Hypobromous acid (HOBr) was prepared by the exposure of a slight excess of one equivalent of aqueous bromide ion (as NaBr) to one equivalent of HOCl. This solution was prepared fresh for use in tests for inactivation of resistant microbial organisms.
Exposures as brief as 20 seconds to HOBr at approximately 25 ppm were sufficient to produce LRV of 6. In the same experimental protocol HOC1 at 230 ppm was required to produce 6 LRV in the same contact time. As soon as the HOCl concentration used was below 230 ppm, the LRVs fell into the 2-4 range.

[2] = test system: A. niger; experiment: Comparative antimicrobial efficacy of HOBr and HOCl solutions vs suspensions; type: cell-based; conditions: all concentrations tested, 40 s exposure
Protocol: (§1) FIGS. 3A-3C compare antimicrobial efficacy comparison of HOBr and HOCl solutions: E. coli, 20 s exposure (3A); S. aureus, 40 s exposure (3B); and A. niger, 40 s exposure (3C). HOBr=diagonal lines; HOCl=stippling.
(§2) Preparations of HOCl stored at 22° C. for several weeks and freshly prepared HOBr solutions were compared in their antimicrobial properties versus suspensions of E. coli, S. aureus, and A. niger (see FIG. 3).

[3] = test system: E. coli; experiment: as above; type: cell-based; conditions: 20 s exposure
Protocol: as §1, §2

[4] = test system: S. aureus; experiment: as above; type: cell-based; conditions: 40 s exposure
Protocol: as §1, §2

[5] = test system: human skin and mucous membranes, including conjunctiva; experiment: Safety of topically applied freshly prepared aqueous HOBr; type: in vivo; conditions: HOBr solution made from HOCl containing 200 ppm of Cl plus an equivalent of NaBr
Excerpt: A solution of HOBr was made by addition of an equivalent of NaBr to a solution of HOCl containing 200 ppm of Cl.

[6] = lower concentrations (<115 ppm)

SMILES	LRV, inactivation of Bacillus subtilis spores ([1]; 230 ppm)	LRV, inactivation of Bacillus subtilis spores ([1]; approximately 25 ppm)	LRV, inactivation of Bacillus subtilis spores ([1]; concentration below 230 ppm)	efficacy against A. niger, comparative [2]	inactivating E. coli, comparative efficacy ([3]; high concentrations (≥115 ppm))	inactivating S. aureus, comparative efficacy ([4]; high concentrations (≥115 ppm))	inactivating E. coli, comparative efficacy [3, 6]	inactivating S. aureus, comparative efficacy [4, 6]	adverse effects on epithelial surfaces after topical application [5]
OCl [HOCl, hypochlorous acid]	6	no detectable effect	2-4	equally or more effective than HOBr	equally effective	equally effective			
OBr [HOBr, Hypobromous acid]		6			equally effective	equally effective	markedly more effective than HOCl	markedly more effective than HOCl	without any indication of adverse effects
